The target of assay [1] is T1, K-Ras G12V (Homo sapiens, UniProt P01116, G12V).
T1 construct: made in house; host or cells: E. coli, e.g. BL21 (DE3)
The experiment in a line: PPI-HTRF assay, K-Ras G12V / SOS1 interaction. It is filed as biochemical. As to conditions: HTRF, K-Ras G12V; read-out: PPI-HTRF-5 nM (K-Ras G12V IC50). A digest of the protocol: (§1)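 Equilibrium interaction of GST-tagged human K-Ras (wildtype or G12D/G12V/G12S mutant) with His-tagged hSOS1. Detection uses anti-GST-Eu(K) and anti-6His-XL665 in HEPES pH 7.4 buffer. Signal is read ≥10 min after mixing and the ratiometric HTRF signal is fitted for IC50.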
(TR-FRET usually uses a lanthanide donor and a delayed reading to cut background.)

The target of assay [2] is T2, wildtype K-Ras (Homo sapiens, UniProt P01116).
T2 construct: made in house; host or cells: E. coli, e.g. BL21 (DE3)
Description: PPI-HTRF assay, wildtype K-Ras / SOS1 interaction. It is filed as biochemical. As to conditions: HTRF, K-Ras wt; read-out: PPI-HTRF-5 nM (K-Ras wt IC50). Put shortly: as §1

Assay [3] concerns the target T3, K-Ras G12D (Homo sapiens, UniProt P01116, G12D).
T3 construct: made in house; host or cells: E. coli, e.g. BL21 (DE3)
Description: PPI-HTRF assay, K-Ras G12D / SOS1 interaction. It is filed as biochemical. As to conditions: HTRF, K-Ras G12D; read-out: PPI-HTRF-5 nM (K-Ras G12D IC50). Put shortly:
as §1

Assay [4] has as its system A549 cells. The experiment in a line: Ras cellular assay, cell proliferation A549. The class given is cell-based. The conditions noted are these: Homo sapiens. Put shortly: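 G12S-mutant A549 cells (800/well) in RPMI-1640 plus 10% heat-inactivated FBS, standard or ultra-low attachment 384-well plates, dosed the day after plating with a 10-point 3-fold series. Viability by CellTiter-Glo luminescence about 6 days later; IC50 from four-parameter fit.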

Assay [5] deals with GP2D cells. Description: Ras cellular assay, cell proliferation GP2D. The class given is cell-based. A digest of the protocol:
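Growth inhibition read by CellTiter-Glo luminescence roughly 5 days after compound addition, which followed overnight plating of G12D-mutant GP2D cells (e.g., 800 per well). Compounds were tested as a serial dilution (e.g., 9 points, 3-fold), with IC50 fitted by four-parameter model.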

The target in assay [6] is T4, K-Ras G12S (Homo sapiens, UniProt P01116, G12S).
T4 construct: made in house; host or cells: E. coli, e.g. BL21 (DE3)
The experiment in a line: PPI-HTRF assay, K-Ras G12S / SOS1 interaction. The class given is biochemical. As to conditions: read-out: PPI-HTRF-5 nM (K-Ras G12S IC50). A digest of the protocol: as §1

For assay [7], the system named is SW620 cells. The experiment in a line: Ras cellular assay, cell proliferation SW620. The class given is cell-based. As to conditions: Homo sapiens, SW-620. An excerpt:
For example, this assay can be also used to assess selective growth inhibition of a mutant Ras protein relative to a wildtype, or relative to a different mutant Ras protein.

Bounds are passed on as bounds.

Usually IC50 stands for the concentration needed to halve the response being measured.

T1 sequence (P01116 1-188 isoform P01116-2 G12V): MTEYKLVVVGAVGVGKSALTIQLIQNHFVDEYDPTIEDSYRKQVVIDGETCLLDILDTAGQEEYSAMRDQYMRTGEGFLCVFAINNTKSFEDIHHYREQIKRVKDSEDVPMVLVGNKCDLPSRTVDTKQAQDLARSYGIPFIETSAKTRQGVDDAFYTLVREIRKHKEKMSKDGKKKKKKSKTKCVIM
T2 sequence (P01116 1-188 isoform P01116-2): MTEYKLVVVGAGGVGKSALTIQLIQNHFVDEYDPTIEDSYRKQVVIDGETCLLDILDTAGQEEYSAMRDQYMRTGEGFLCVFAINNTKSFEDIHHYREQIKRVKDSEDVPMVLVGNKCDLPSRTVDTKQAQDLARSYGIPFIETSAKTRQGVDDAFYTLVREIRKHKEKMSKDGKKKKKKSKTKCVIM
T4 sequence (P01116 1-188 isoform P01116-2 G12S): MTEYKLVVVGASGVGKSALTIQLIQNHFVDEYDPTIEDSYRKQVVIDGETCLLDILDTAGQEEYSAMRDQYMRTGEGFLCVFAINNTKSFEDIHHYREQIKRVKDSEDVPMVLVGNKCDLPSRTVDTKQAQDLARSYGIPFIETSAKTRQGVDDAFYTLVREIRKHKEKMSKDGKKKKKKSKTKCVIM
T3 sequence (P01116 1-188 isoform P01116-2 G12D): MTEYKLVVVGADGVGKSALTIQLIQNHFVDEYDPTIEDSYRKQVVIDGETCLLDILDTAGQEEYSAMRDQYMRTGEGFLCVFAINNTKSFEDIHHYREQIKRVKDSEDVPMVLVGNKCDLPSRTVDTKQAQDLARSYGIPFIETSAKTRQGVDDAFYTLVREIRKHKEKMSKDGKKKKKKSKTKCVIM

For the molecule `N#Cc1c(N)sc2c(F)ccc(-c3c(Cl)c4c5c(nc(OC[C@@]67CCCN6C[C@H](F)C7)nc5c3F)N3[C@H](CCO4)C[C@@H]4OCC[C@@H]43)c12` [compound 200, 2-amino-4-((6aR,7aS,10aS)-3-chloro-1-fluoro-13-(((2R,7aS)-2-fluorotetrahydro-1H-pyrrolizin-7a(5H)-yl)methoxy)-5,6,6a,7,7a,9,10,10a-octahydrofuro[2″,3″:4′,5′]pyrrolo[1′,2′:5,6][1,5]oxazocino[4,3,2-de]quinazolin-2-yl)-7-fluorobenzo[b]thiophene-3-carbonitrile], the concentration for half-maximal inhibition (IC50) in assay [1], in assay [2], in assay [3], in assay [4], in assay [5] and in assay [6] was under 5 µM in each case. Also, the half-inhibitory concentration (IC50) in assay [7] was under 5 µM.

`N#Cc1c(N)sc2c(F)ccc(-c3c(Cl)c4c5c(nc(OCC67CCCN6C[C@H](F)C7)nc5c3F)N3CCCC[C@@H]3CO4)c12` (stereo partly drawn) [compound 103, 2-amino-4-((5aR)-3-chloro-1-fluoro-12-(((2R)-2-fluorotetrahydro-1H-pyrrolizin-7a(5H)-yl)methoxy)-5,5a,6,7,8,9-hexahydropyrido[2′,1′:3,4][1,4]oxazepino [5,6,7-de]quinazolin-2-yl)-7-fluorobenzo[b]thiophene-3-carbonitrile]: the IC50 in assay [1], in assay [2], in assay [3], in assay [4], in assay [5] and in assay [6] was under 5 µM throughout. The same molecule gave a 50% inhibitory concentration (IC50) in assay [7] of under 5 µM.

Consider `N#Cc1c(N)sc2c(F)ccc(-c3c(Cl)c4c5c(nc(OC[C@@]67CCCN6C[C@H](F)C7)nc5c3F)N3CCCNCC3CO4)c12` (stereo partly drawn) [compound 151, 2-amino-4-(12-chloro-10-fluoro-8-(((2R,7aS)-2-fluorotetrahydro-1H-pyrrolizin-7a(5H)-yl)methoxy)-2,3,4,5,14,14a-hexahydro-1H-[1,4]diazepino[2′,1′:3,4][1,4]oxazepino [5,6,7-de]quinazolin-11-yl)-7-fluorobenzo[b]thiophene-3-carbonitrile], for which the half-maximal inhibitory concentration (IC50) in assay [1], in assay [2], in assay [3], in assay [4], in assay [5] and in assay [6] was under 5 µM each time. The molecule further displayed a 50% inhibitory concentration (IC50) in assay [7] of under 5 µM.

In the case of `N#Cc1c(N)sc2c(F)ccc(-c3c(Cl)c4c5c(nc(OC[C@@]67CCCN6C[C@H](F)C7)nc5c3F)N3CCN(CC(F)F)CCC3CO4)c12` (stereo partly drawn) [compound 170, 2-amino-4-(6-chloro-11-(2,2-difluoroethyl)-4-fluoro-2-(((2R,7aS)-2-fluorotetrahydro-1H-pyrrolizin-7a(5H)-yl)methoxy)-8a,9,10,11,12,13-hexahydro-8H-[1,4]diazepino[7′,1′:3,4][1,4]oxazepino [5,6,7-de]quinazolin-5-yl)-7-fluorobenzo[b]thiophene-3-carbonitrile], the 50% inhibitory concentration (IC50) in assay [1], in assay [2], in assay [3], in assay [4], in assay [5] and in assay [6] was under 5 µM in each case. The molecule also gave an IC50 in assay [7] of under 5 µM.

`N#Cc1c(N)sc2c(F)ccc(-c3c(Cl)c4c5c(nc(OC[C@@]67CCCN6C[C@H](F)C7)nc5c3F)N3CCC3CO4)c12` (stereo partly drawn) [compound 178, 2-amino-4-(6-chloro-4-fluoro-2-(((2R,7aS)-2-fluorotetrahydro-1H-pyrrolizin-7a(5H)-yl)methoxy)-8,8a,9,10-tetrahydroazeto[2′,1′:3,4][1,4]oxazepino [5,6,7-de]quinazolin-5-yl)-7-fluorobenzo[b]thiophene-3-carbonitrile]: the half-inhibitory concentration (IC50) in assay [1], in assay [2], in assay [3], in assay [4], in assay [5] and in assay [6] was under 5 µM throughout. In assay [7], this molecule gave a 50% inhibitory concentration (IC50) of under 5 µM.

With `N#CCC1CCC2COc3c(Cl)c(-c4ccc(F)c5sc(N)c(C#N)c45)c(F)c4nc(OCC56CCCN5C[C@H](F)C6)nc(c34)N2C1` (stereo partly drawn) [compound 204, 2-amino-4-(6-chloro-11-(cyanomethyl)-4-fluoro-2-(((2R)-2-fluorotetrahydro-1H-pyrrolizin-7a(5H)-yl)methoxy)-8,8a,9,10,11,12-hexahydropyrido[2′,1′:3,4][1,4]oxazepino [5,6,7-de]quinazolin-5-yl)-7-fluorobenzo[b]thiophene-3-carbonitrile], the half-inhibitory concentration (IC50) in assay [1], in assay [2], in assay [3], in assay [4], in assay [5] and in assay [6] was under 5 µM each time. The IC50 in assay [7] was under 5 µM.

With `N#Cc1c(N)sc2c(F)ccc(-c3c(Cl)c4c5c(nc(OC[C@@]67CCCN6C[C@H](F)C7)nc5c3F)N(CC(F)F)C3COCC3CO4)c12` (stereo partly drawn) [compound 188, 2-amino-4-(6-chloro-12-(2,2-difluoroethyl)-4-fluoro-2-(((2R,7aS)-2-fluorotetrahydro-1H-pyrrolizin-7a(5H)-yl)methoxy)-8a,9,11a,12-tetrahydro-8H,11H-furo[3′,4′:6,7][1,5]oxazocino[4,3,2-de]quinazolin-5-yl)-7-fluorobenzo[b]thiophene-3-carbonitrile], the IC50 in assay [1], in assay [2], in assay [3], in assay [4], in assay [5] and in assay [6] was under 5 µM in each case. This molecule also had an IC50 in assay [7] of under 5 µM.

In the case of `N#Cc1c(N)sc2c(F)ccc(-c3c(Cl)c4c5c(nc(OC[C@@]67CCCN6C[C@H](F)C7)nc5c3F)N3CC(OC(F)F)CCC3CO4)c12` (single isomer, unassigned) [compound 148], the IC50 in assay [1] is under 5 µM; in assay [2] it was under 5 µM; in assay [3], under 5 µM; in assay [4], over 5 µM; in assay [5], under 5 µM; in assay [6] it was under 5 µM. This molecule also yielded a 50% inhibitory concentration (IC50) in assay [7] of under 5 µM.

With `COCC1CCC2COc3c(Cl)c(-c4ccc(F)c5sc(N)c(C#N)c45)c(F)c4nc(OCC56CCCN5C[C@H](F)C6)nc(c34)N2C1` (stereo partly drawn) [compound 121, 2-amino-4-(6-chloro-4-fluoro-2-(((2R)-2-fluorotetrahydro-1H-pyrrolizin-7a(5H)-yl)methoxy)-11-(methoxymethyl)-8,8a,9,10,11,12-hexahydropyrido[2′,1′:3,4][1,4]oxazepino [5,6,7-de]quinazolin-5-yl)-7-fluorobenzo[b]thiophene-3-carbonitrile], the concentration for half-maximal inhibition (IC50) in assay [1], in assay [2], in assay [3], in assay [4], in assay [5] and in assay [6] was under 5 µM in each case. In addition, the IC50 in assay [7] is under 5 µM.

In the case of `N#Cc1c(N)sc2c(F)ccc(-c3c(Cl)c4c5c(nc(OC[C@@]67CCCN6C[C@H](F)C7)nc5c3F)N3CC[C@H]3CO4)c12` [compound 192, 2-amino-4-((11aS)-9-chloro-7-fluoro-5-(((2R,7aS)-2-fluorotetrahydro-1H-pyrrolizin-7a(5H)-yl)methoxy)-1,2,11,11a-tetrahydroazeto[2′,1′:3,4][1,4]oxazepino [5,6,7-de]quinazolin-8-yl)-7-fluorobenzo[b]thiophene-3-carbonitrile], the IC50 in assay [1], in assay [2], in assay [3], in assay [4], in assay [5] and in assay [6] was under 5 µM throughout. Besides, in assay [7], the half-maximal inhibitory concentration (IC50) is under 5 µM.

On to `CN1c2nc(OC[C@@]34CCCN3C[C@H](F)C4)nc3c(F)c(-c4ccc(F)c5sc(N)c(C#N)c45)c(Cl)c(c23)OCC2CN(C(=O)[C@H]3CN3)CC21` (stereo partly drawn) [compound 124, 2-amino-4-(10-((R)-aziridine-2-carbonyl)-6-chloro-4-fluoro-2-(((2R,7aS)-2-fluorotetrahydro-1H-pyrrolizin-7a(5H)-yl)methoxy)-12-methyl-8a,9,10,11,11a,12-hexahydro-8H-pyrrolo[3′,4′:6,7][1,5]oxazocino[4,3,2-de]quinazolin-5-yl)-7-fluorobenzo[b]thiophene-3-carbonitrile], for which the half-inhibitory concentration (IC50) was under 5 µM in assay [1]; under 5 µM in assay [2]; under 5 µM in assay [3]; over 5 µM in assay [4]; under 5 µM in assay [5]; under 5 µM in assay [6]. Moreover, the 50% inhibitory concentration (IC50) in assay [7] was under 5 µM.

For the origin of these results see US12059425B2, “Heterocyclic compounds and uses thereof” (Kumquat Biosciences Inc., priority 2022, dated 2024).
